Results taken from patent US10258610B2, “Pharmaceutical compositions comprising rifaximin, processes for their preparation and their use in the treatment of vaginal infections” (ALFASIGMA S.P.A., priority 2011, dated 2019).
Entries after “also recorded” stand apart in the source; their conditions may differ. Read-outs that look alike come from different tables or passages of the source.

Columns and labels:
Gardnerella vaginalis = assay type: in vivo, New Zealand rabbits (Oryctolagus cunicolis)
Description: The efficacy of vaginal compositions in rifaximin containing tablets and ovules was evaluated in an animal model of bacterial infection persistent in the rabbit.
The vaginal infection model was induced by inoculation of Gardnerella vaginalis isolated from women affected by bacterial vaginosis. The bacterial strains were grown in agar of bovine red blood cells at 37° C. by adding a DIFCO-C supplement and were kept under controlled atmosphere 5% CO2 for 24-48 hours.
For developing the model of animal infection, New Zealand rabbits (Oryctolagus cunicolis) having a weight comprised between 2 and 3 kg were used.
Before the infection, the animals had been treated with 1 ml 10% enrofloxacin solution for reducing the endogenous Lactobacilli and facilitating the growth of pathogenic agent. The infection was induced by inoculating in the animals vagina 1 ml of sterile saline solution containing 106-7 UFC (Unit Forming Colony) of Gardnerella vaginalis by using a 22-24G Teflon catheter. The presence of G. vaginalis in the animals was verified before the inoculation and 24 and 48 hours after the inoculation.
The animals were inoculated twice and thrice at time intervals of three days. After 14 days the last inoculation all animals were treated with 1 ml 10% enrofloxacin solution to verify the model sensitivity to antibiotics. The treatment healed the infection, thus confirming that the model can be used to evaluate the efficacy of antibiotics administered via the intravaginal route.
The presence of G. vaginalis was verified by vaginal buffer 1, 2, 4, 10 and 14 days after the last inoculation, putting the vaginal buffers in agar plates of bovine red blood cells with DIFCO-C supplement and growing them at 37° C. for 48 hours. The presence of G. vaginalis was verified by means of microscope (1000×) morphological identification and with Gram staining.
Three and seven days after the end of the rifaximin treatment, the presence of Gardnerella vaginalis was evaluated by means of vaginal buffers as previously described.
The vaginal buffers were considered positive if 10 or more colonies were counted, and the presence of malodorous vaginal discharges was the clinical sign of the occurred infection.

[1] = Phase I systemic absorption of rifaximin vaginal tablets in healthy volunteers; assay type: in vivo, human; settings: single 100 mg vaginal tablet, 30 minutes to 24 hours; LLOQ 0.5 ng/ml
Description: The samples were analyzed by liquid chromatography equipped with mass spectrometry detector, with a lower limit of quantization (LLOQ) of rifaximin concentration 0.5 ng/ml.

[2] = Phase II clinical trial, adverse events; assay type: in vivo, human
From the text: The adverse events reported by patients were registered, and the most frequent one was the rifaximin related vulvovaginal itching and burning.
In Table 23 it is reported the percentage of patients belonging to different treatment groups who reported adverse events both systemic and local, vulvovaginal itching and burning related to rifaximin.

Atopobium = assay: Vaginal microbiota by quantitative real-time PCR; assay type: in vivo; settings: for Target DNA/genomic vaginal DNA, Atopobium / Target DNA/genomic or vaginal DNA, Atopobium: average; for Target DNA/genomic or vaginal DNA, Atopobium: visit V4, patients maintaining recovery
Description: During the clinical trial, described in Example 12, samples of vaginal cleansing were collected and the composition of vaginal microbiota was determined by means of the quantitative real-time PCR.
With the real-time PCR the DNA samples are amplified with gender- and/or species-specific primers whose target is the 16S rRNA bacterial gene or the 16S-23 S rRNA region.
In particular, specific probes were used for the Lactobacillus gender, for Gardnerella vaginalis, for Atopobium, for Prevotella and for Veillonella, since they represent the main bacterial groups suffering from modifications in case of bacterial vaginosis.
Table 28 reports the values of real-time PCR relating to bacterial genders and species quantified in vaginal cleansings of women belonging to the different treatment groups, expressed as total target DNA ng/genomic DNA μg, for microbial species tested for each group at the visit V3 if compared to the visit V1.
The composition of vaginal microbiota was determined by means of the quantitative real-time PCR technique of patients maintaining their recovery at the visit V4, 30-40 days after the end of the therapy, and the DNA samples amplified with gender- and/or species-specific primers were evaluated by means of the real-time PCR technique.
Table 29 reports the values of real-time PCR relating to target bacterial genders and species quantified in vaginal rinses of women belonging to the different treatment groups, expressed as total target DNA ng/genomic DNA μg, for microbial species tested for each group at the visit V4 when compared to the values observed at the visit V1 of all treated patients.

[3] = Group A: 1 tablet 100 mg × 5 days
[4] = Group B: 1 tablet 25 mg × 5 days
[5] = Group C: 1 tablet 100 mg × 2 days

rifaximin plasma concentrations [1]: under the analytical detection limit
SMILES: CO[C@H]1/C=C/O[C@@]2(C)Oc3c(C)c(O)c4c(O)c(c5c(nc6cc(C)ccn65)c4c3C2=O)NC(=O)/C(C)=C\C=C\[C@H](C)[C@H](O)[C@@H](C)[C@@H](O)[C@@H](C)[C@H](OC(C)=O)[C@@H]1C [Rifaximin]
adverse event during treatment (Gardnerella vaginalis; rabbit, in vivo): No adverse event was observed
eradication of the infection (presence of Gardnerella vaginalis) (Gardnerella vaginalis; seven days after the end of the treatment, tablets and ovules, 1.5 to 12.5 mg): negative for 7 days after the end of the treatment
Eradication (Gardnerella vaginalis; vaginal ovules, rifaximin dose 1.5 mg, after 3 days): 100%
Eradication (Gardnerella vaginalis; vaginal ovules, rifaximin dose 1.5 mg, after 7 days): 100%
Eradication (Gardnerella vaginalis; vaginal ovules, rifaximin dose 3 mg, after 3 days): 88%
Eradication (Gardnerella vaginalis; vaginal ovules, rifaximin dose 3 mg, after 7 days): 100%
Eradication (Gardnerella vaginalis; vaginal ovules, rifaximin dose 6 mg, after 3 days): 88%
Eradication (Gardnerella vaginalis; vaginal ovules, rifaximin dose 6 mg, after 7 days): 100%
Eradication (Gardnerella vaginalis; vaginal ovules, rifaximin dose 12.5 mg, after 3 days): 100%
Eradication (Gardnerella vaginalis; vaginal ovules, rifaximin dose 12.5 mg, after 7 days): 100%
Eradication (Gardnerella vaginalis; vaginal tablets, rifaximin dose 1.5 mg, after 3 days): 88%
Eradication (Gardnerella vaginalis; vaginal tablets, rifaximin dose 1.5 mg, after 7 days): 100%
Eradication (Gardnerella vaginalis; vaginal tablets, rifaximin dose 3 mg, after 3 days): 63%
Eradication (Gardnerella vaginalis; vaginal tablets, rifaximin dose 3 mg, after 7 days): 100%
Eradication (Gardnerella vaginalis; vaginal tablets, rifaximin dose 6 mg, after 3 days): 88%
Eradication (Gardnerella vaginalis; vaginal tablets, rifaximin dose 6 mg, after 7 days): 100%
Eradication (Gardnerella vaginalis; vaginal tablets, rifaximin dose 12.5 mg, after 3 days): 100%
Eradication (Gardnerella vaginalis; vaginal tablets, rifaximin dose 12.5 mg, after 7 days): 100%
Patients with adverse events [2, 3]: 35.7%
Patients with vulvovaginal burning [2, 3]: 3.6%
Patients with vulvovaginal itching [2, 3]: 25.0%
Patients with adverse events [2, 4]: 34.6%
Patients with vulvovaginal burning [2, 4]: 19.2%
Patients with vulvovaginal itching [2, 4]: 19.2%
Patients with adverse events [2, 5]: 7.7%
Patients with vulvovaginal burning [2, 5]: 3.8%
Patients with vulvovaginal itching [2, 5]: 3.8%
rifaximin related vulvovaginal candidiasis during treatment ([2]; any of the treated groups): none of the treated groups showed any case of rifaximin-related vulvovaginal candidiasis; also recorded: No rifaximin related vulvovaginal candidiasis
adverse event in the clinical study ([2]; patients treated with 25 mg and 100 mg rifaximin in vaginal tablets): did not show any particular adverse event
change of Atopopium concentration by real-time PCR (Atopobium; all groups treated with rifaximin, compared to placebo): reduction
Target DNA/genomic vaginal DNA, Atopobium (Atopobium; visit V1 (before therapy), Group A: 1 tablet 100 mg × 5 days): 93.07 ng/µg
Target DNA/genomic vaginal DNA, Atopobium (Atopobium; visit V1 (before therapy), Group B: 1 tablet 25 mg × 5 days): 108.2 ng/µg
Target DNA/genomic vaginal DNA, Atopobium (Atopobium; visit V1 (before therapy), Group C: 1 tablet 100 mg × 2 days): 170.4 ng/µg
Target DNA/genomic vaginal DNA, Atopobium (Atopobium; visit V3, Group A: 1 tablet 100 mg × 5 days): 61.46 ng/µg
Target DNA/genomic vaginal DNA, Atopobium (Atopobium; visit V3, Group B: 1 tablet 25 mg × 5 days): 48.8 ng/µg
Target DNA/genomic vaginal DNA, Atopobium (Atopobium; visit V3, Group C: 1 tablet 100 mg × 2 days): 59.99 ng/µg
Target DNA/genomic or vaginal DNA, Atopobium (Atopobium; [3]): 5.348 ng/µg
Target DNA/genomic or vaginal DNA, Atopobium (Atopobium; [4]): 28.25 ng/µg
Target DNA/genomic or vaginal DNA, Atopobium (Atopobium; [5]): 139.9 ng/µg
